In patent US20240132463A1, “SUBSTITUTED N-(2-(2,6-DIOXOPIPERIDIN-3-YL)-1,3-DIOXOISOINDOLIN-5-YL)ARYLSULFONAMIDE ANALOGS AS MODULATORS OF CEREBLON PROTEIN” (ST. JUDE CHILDREN'S RESEARCH HOSPITAL, INC., priority 2020, published 2024):

Target: 6×His-CRBN-DDB1 protein (Homo sapiens (Human), UniProt Q96SW2)
Test: CRBN fluorescence polarization assay
Assay type: binding
Conditions: cereblon binding, class symbols; read-out: CRBN FP IC50
Description: 6×His-CRBN-DDB1 protein (200 nM) and Cy5-O-Len probe (30 nM) were combined in 20 mM HEPES pH 7, 150 mM NaCl, 0.005% Tween-20 assay buffer. […] The plates were incubated in the dark for 1 hour at room temperature and then read on an Envision plate reader (PerkinElmer, Massachusetts, USA).

Sequence of 6×His-CRBN-DDB1 protein (Q96SW2 whole entry): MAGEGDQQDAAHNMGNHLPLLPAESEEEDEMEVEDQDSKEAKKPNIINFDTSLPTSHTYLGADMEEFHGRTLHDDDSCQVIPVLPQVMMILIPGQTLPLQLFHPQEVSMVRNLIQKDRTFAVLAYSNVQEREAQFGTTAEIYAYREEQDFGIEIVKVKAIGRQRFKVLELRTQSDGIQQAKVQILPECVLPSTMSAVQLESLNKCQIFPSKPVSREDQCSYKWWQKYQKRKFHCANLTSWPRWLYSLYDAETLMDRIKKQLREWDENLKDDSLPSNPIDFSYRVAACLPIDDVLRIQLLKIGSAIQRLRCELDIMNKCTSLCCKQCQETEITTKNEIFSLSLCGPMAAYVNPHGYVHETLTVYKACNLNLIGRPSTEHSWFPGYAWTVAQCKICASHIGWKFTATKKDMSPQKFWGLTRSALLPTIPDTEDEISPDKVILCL
Sequence of 6×His-CRBN-DDB1 protein (Q16531 whole entry partner): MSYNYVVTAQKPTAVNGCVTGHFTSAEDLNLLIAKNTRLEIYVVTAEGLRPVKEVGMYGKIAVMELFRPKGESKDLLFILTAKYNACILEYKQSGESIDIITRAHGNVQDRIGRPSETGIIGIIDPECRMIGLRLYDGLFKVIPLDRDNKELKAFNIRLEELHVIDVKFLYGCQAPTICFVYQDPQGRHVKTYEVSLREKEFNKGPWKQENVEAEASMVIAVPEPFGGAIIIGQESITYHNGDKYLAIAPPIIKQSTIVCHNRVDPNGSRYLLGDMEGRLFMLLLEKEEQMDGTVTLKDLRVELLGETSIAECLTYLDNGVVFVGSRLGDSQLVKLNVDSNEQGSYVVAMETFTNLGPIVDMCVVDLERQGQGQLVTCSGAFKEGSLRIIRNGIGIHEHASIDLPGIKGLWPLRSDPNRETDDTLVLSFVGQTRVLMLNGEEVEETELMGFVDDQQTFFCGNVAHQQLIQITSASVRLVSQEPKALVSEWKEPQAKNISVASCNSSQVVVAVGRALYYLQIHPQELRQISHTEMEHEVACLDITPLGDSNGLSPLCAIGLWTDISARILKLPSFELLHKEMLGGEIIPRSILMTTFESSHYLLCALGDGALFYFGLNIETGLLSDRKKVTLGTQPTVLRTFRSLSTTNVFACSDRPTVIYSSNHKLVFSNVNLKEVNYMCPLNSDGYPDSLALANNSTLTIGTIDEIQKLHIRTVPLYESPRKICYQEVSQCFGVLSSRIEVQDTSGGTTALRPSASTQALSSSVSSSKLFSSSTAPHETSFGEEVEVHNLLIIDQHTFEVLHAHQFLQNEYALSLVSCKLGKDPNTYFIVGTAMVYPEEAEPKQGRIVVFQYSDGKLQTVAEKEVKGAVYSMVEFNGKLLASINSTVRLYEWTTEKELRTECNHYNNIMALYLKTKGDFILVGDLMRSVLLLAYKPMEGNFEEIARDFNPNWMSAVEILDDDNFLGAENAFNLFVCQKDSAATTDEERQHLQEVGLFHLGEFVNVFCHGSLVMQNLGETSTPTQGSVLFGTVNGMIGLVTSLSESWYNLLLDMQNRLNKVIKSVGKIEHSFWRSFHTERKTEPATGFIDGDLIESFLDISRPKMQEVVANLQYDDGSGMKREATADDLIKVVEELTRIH

IC50	Compound
< 1 µM	CC(C)(C)c1ccc(S(=O)(=O)Nc2ccc3c(c2)C(=O)N(C2CCC(=O)NC2=O)C3=O)cc1 (centres unmarked) [Compound 3, 4-(tert-butyl)-N-(2-(2,6-dioxopiperidin-3-yl)-1,3-dioxoisoindolin-5-yl)benzenesulfonamide]
< 1 µM	O=C1CCC(N2C(=O)c3ccc(NS(=O)(=O)c4cc(Cl)cc(Cl)c4)cc3C2=O)C(=O)N1 (centres unmarked) [Compound 6, 3,5-dichloro-N-(2-(2,6-dioxopiperidin-3-yl)-1,3-dioxoisoindolin-5-yl)benzenesulfonamide]
< 1 µM	O=C1CCC(N2C(=O)c3ccc(NS(=O)(=O)c4ccc(F)c(F)c4)cc3C2=O)C(=O)N1 (centres unmarked) [Compound 11, N-(2-(2,6-dioxopiperidin-3-yl)-1,3-dioxoisoindolin-5-yl)-3,4-difluorobenzenesulfonamide]
< 1 µM	CC(=O)Nc1ccc(S(=O)(=O)Nc2ccc3c(c2)C(=O)N(C2CCC(=O)NC2=O)C3=O)cc1 (centres unmarked) [Compound 13, N-(4-(N-(2-(2,6-dioxopiperidin-3-yl)-1,3-dioxoisoindolin-5-yl)sulfamoyl)phenyl)acetamide]
< 1 µM	COc1ccc(S(=O)(=O)Nc2ccc3c(c2)C(=O)N(C2CCC(=O)NC2=O)C3=O)cc1 (centres unmarked) [Compound 14, N-(2-(2,6-dioxopiperidin-3-yl)-1,3-dioxoisoindolin-5-yl)-4-methoxybenzenesulfonamide]
< 1 µM	Cc1cccc(S(=O)(=O)Nc2ccc3c(c2)C(=O)N(C2CCC(=O)NC2=O)C3=O)c1 (centres unmarked) [Compound 19, N-(2-(2,6-dioxopiperidin-3-yl)-1,3-dioxoisoindolin-5-yl)-3-methylbenzenesulfonamide]
< 1 µM	O=C1CCC(N2Cc3ccc(NS(=O)(=O)c4ccccc4)cc3C2=O)C(=O)N1 (centres unmarked) [Compound 22, N-(2-(2,6-dioxopiperidin-3-yl)-3-oxoisoindolin-5-yl)benzenesulfonamide]
< 1 µM	O=C1CCC(N2Cc3ccc(NS(=O)(=O)c4ccc(F)cc4)cc3C2=O)C(=O)N1 (centres unmarked) [Compound 23, N-(2-(2,6-dioxopiperidin-3-yl)-3-oxoisoindolin-5-yl)-4-fluorobenzenesulfonamide]
1 to 10 µM	COc1ccc(S(=O)(=O)Nc2ccc3c(c2)C(=O)N(C2CCC(=O)NC2=O)C3)cc1 (centres unmarked) [Compound 24, N-(2-(2,6-dioxopiperidin-3-yl)-3-oxoisoindolin-5-yl)-4-methoxybenzenesulfonamide]
< 1 µM	Cc1ccc(S(=O)(=O)Nc2ccc3c(c2)C(=O)N(C2CCC(=O)NC2=O)C3)cc1 (centres unmarked) [Compound 25, N-(2-(2,6-dioxopiperidin-3-yl)-3-oxoisoindolin-5-yl)-4-methylbenzenesulfonamide]
< 1 µM	O=C1CCC(N2Cc3ccc(NS(=O)(=O)c4ccc(C(F)(F)F)cc4)cc3C2=O)C(=O)N1 (centres unmarked) [Compound 26, N-(2-(2,6-dioxopiperidin-3-yl)-3-oxoisoindolin-5-yl)-4-(trifluoromethyl)benzenesulfonamide]
< 1 µM	O=C1CCC(N2Cc3ccc(NS(=O)(=O)c4cccc(OC(F)(F)F)c4)cc3C2=O)C(=O)N1 (centres unmarked) [Compound 27, N-(2-(2,6-dioxopiperidin-3-yl)-3-oxoisoindolin-5-yl)-3-(trifluoromethoxy)benzenesulfonamide]
< 1 µM	O=C1CCC(N2Cc3ccc(NS(=O)(=O)c4ccccc4C(F)(F)F)cc3C2=O)C(=O)N1 (centres unmarked) [Compound 28, N-(2-(2,6-dioxopiperidin-3-yl)-3-oxoisoindolin-5-yl)-2-(trifluoromethyl)benzenesulfonamide]
< 1 µM	COc1cccc(S(=O)(=O)Nc2ccc3c(c2)C(=O)N(C2CCC(=O)NC2=O)C3)c1 (centres unmarked) [Compound 29, N-(2-(2,6-dioxopiperidin-3-yl)-3-oxoisoindolin-5-yl)-3-methoxybenzenesulfonamide]
< 1 µM	CC(C)c1ccc(S(=O)(=O)Nc2ccc3c(c2)C(=O)N(C2CCC(=O)NC2=O)C3)cc1 (centres unmarked) [Compound 30, N-(2-(2,6-dioxopiperidin-3-yl)-3-oxoisoindolin-5-yl)-4-isopropylbenzenesulfonamide]
1 to 10 µM	O=C1CCC(N2Cc3ccc(NS(=O)(=O)c4ccc(F)c(Cl)c4)cc3C2=O)C(=O)N1 (centres unmarked) [Compound 31, 3-chloro-N-(2-(2,6-dioxopiperidin-3-yl)-3-oxoisoindolin-5-yl)-4-fluorobenzenesulfonamide]
< 1 µM	O=C1CCC(N2Cc3ccc(NS(=O)(=O)c4cccc(C(F)(F)F)c4)cc3C2=O)C(=O)N1 (centres unmarked) [Compound 32, N-(2-(2,6-dioxopiperidin-3-yl)-3-oxoisoindolin-5-yl)-3-(trifluoromethyl)benzenesulfonamide]
< 1 µM	Cc1ccc(S(=O)(=O)Nc2ccc3c(c2)C(=O)N(C2CCC(=O)NC2=O)C3)cc1Cl (centres unmarked) [Compound 33, 3-chloro-N-(2-(2,6-dioxopiperidin-3-yl)-3-oxoisoindolin-5-yl)-4-methylbenzenesulfonamide]
< 1 µM	Cc1ccc(F)c(S(=O)(=O)Nc2ccc3c(c2)C(=O)N(C2CCC(=O)NC2=O)C3)c1 (centres unmarked) [Compound 34, N-(2-(2,6-dioxopiperidin-3-yl)-3-oxoisoindolin-5-yl)-2-fluoro-5-methylbenzenesulfonamide]

IC50	Compound
< 1 µM	Cc1ccccc1S(=O)(=O)Nc1ccc2c(c1)C(=O)N(C1CCC(=O)NC1=O)C2 (centres unmarked) [Compound 35, N-(2-(2,6-dioxopiperidin-3-yl)-3-oxoisoindolin-5-yl)-2-methylbenzenesulfonamide]
< 1 µM	Cc1c(Cl)cccc1S(=O)(=O)Nc1ccc2c(c1)C(=O)N(C1CCC(=O)NC1=O)C2 (centres unmarked) [Compound 36, 3-chloro-N-(2-(2,6-dioxopiperidin-3-yl)-3-oxoisoindolin-5-yl)-2-methylbenzenesulfonamide]
< 1 µM	O=C1CCC(N2Cc3ccc(NS(=O)(=O)c4ccccc4OC(F)(F)F)cc3C2=O)C(=O)N1 (centres unmarked) [Compound 37, N-(2-(2,6-dioxopiperidin-3-yl)-3-oxoisoindolin-5-yl)-2-(trifluoromethoxy)benzenesulfonamide]
1 to 10 µM	O=C1CCC(N2Cc3cc(NS(=O)(=O)c4ccccc4)ccc3C2=O)C(=O)N1 (centres unmarked) [Compound 38, N-(2-(2,6-dioxopiperidin-3-yl)-1-oxoisoindolin-5-yl)benzenesulfonamide]
< 1 µM	COc1ccc(S(=O)(=O)Nc2ccc3c(c2)CN(C2CCC(=O)NC2=O)C3=O)cc1 (centres unmarked) [Compound 40, N-(2-(2,6-dioxopiperidin-3-yl)-1-oxoisoindolin-5-yl)-4-methoxybenzenesulfonamide]
< 1 µM	O=C1CCC(N2Cc3cc(NS(=O)(=O)c4cccc(OC(F)(F)F)c4)ccc3C2=O)C(=O)N1 (centres unmarked) [Compound 43, N-(2-(2,6-dioxopiperidin-3-yl)-1-oxoisoindolin-5-yl)-3-(trifluoromethoxy)benzenesulfonamide]
< 1 µM	O=C1CCC(N2Cc3cc(NS(=O)(=O)c4ccccc4C(F)(F)F)ccc3C2=O)C(=O)N1 (centres unmarked) [Compound 44, N-(2-(2,6-dioxopiperidin-3-yl)-1-oxoisoindolin-5-yl)-2-(trifluoromethyl)benzenesulfonamide]
< 1 µM	Cc1cccc(S(=O)(=O)Nc2ccc3c(c2)CN(C2CCC(=O)NC2=O)C3=O)c1 (centres unmarked) [Compound 45, N-(2-(2,6-dioxopiperidin-3-yl)-1-oxoisoindolin-5-yl)-3-methylbenzenesulfonamide]
< 1 µM	CC(C)(C)c1ccc(S(=O)(=O)Nc2ccc3c(c2)CN(C2CCC(=O)NC2=O)C3=O)cc1 (centres unmarked) [Compound 46, 4-(tert-butyl)-N-(2-(2,6-dioxopiperidin-3-yl)-1-oxoisoindolin-5-yl)benzenesulfonamide]
< 1 µM	COc1cccc(S(=O)(=O)Nc2ccc3c(c2)CN(C2CCC(=O)NC2=O)C3=O)c1 (centres unmarked) [Compound 47, N-(2-(2,6-dioxopiperidin-3-yl)-1-oxoisoindolin-5-yl)-3-methoxybenzenesulfonamide]
< 1 µM	O=C1CCC(N2Cc3cc(NS(=O)(=O)c4ccc(F)c(Cl)c4)ccc3C2=O)C(=O)N1 (centres unmarked) [Compound 49, 3-chloro-N-(2-(2,6-dioxopiperidin-3-yl)-1-oxoisoindolin-5-yl)-4-fluorobenzenesulfonamide]
< 1 µM	O=C1CCC(N2Cc3cc(NS(=O)(=O)c4cccc(C(F)(F)F)c4)ccc3C2=O)C(=O)N1 (centres unmarked) [Compound 50, N-(2-(2,6-dioxopiperidin-3-yl)-1-oxoisoindolin-5-yl)-3-(trifluoromethyl)benzenesulfonamide]
< 1 µM	O=C1CCC(N2Cc3cc(NS(=O)(=O)c4ccc(-c5ccccc5)cc4)ccc3C2=O)C(=O)N1 (centres unmarked) [Compound 51, N-(2-(2,6-dioxopiperidin-3-yl)-1-oxoisoindolin-5-yl)-[1,1′-bipheny]-4-sulfonamide]
< 1 µM	Cc1ccc(S(=O)(=O)Nc2ccc3c(c2)CN(C2CCC(=O)NC2=O)C3=O)cc1Cl (centres unmarked) [Compound 52, 3-chloro-N-(2-(2,6-dioxopiperidin-3-yl)-1-oxoisoindolin-5-yl)-4-methylbenzenesulfonamide]
< 1 µM	Cc1ccc(F)c(S(=O)(=O)Nc2ccc3c(c2)CN(C2CCC(=O)NC2=O)C3=O)c1 (centres unmarked) [Compound 53]
< 1 µM	Cc1ccccc1S(=O)(=O)Nc1ccc2c(c1)CN(C1CCC(=O)NC1=O)C2=O (centres unmarked) [Compound 54, N-(2-(2,6-dioxopiperidin-3-yl)-1-oxoisoindolin-5-yl)-2-methylbenzenesulfonamide]
< 1 µM	Cc1c(Cl)cccc1S(=O)(=O)Nc1ccc2c(c1)CN(C1CCC(=O)NC1=O)C2=O (centres unmarked) [Compound 55, 3-chloro-N-(2-(2,6-dioxopiperidin-3-yl)-1-oxoisoindolin-5-yl)-2-methylbenzenesulfonamide]
< 1 µM	O=C1CCC(N2Cc3cc(NS(=O)(=O)c4ccccc4OC(F)(F)F)ccc3C2=O)C(=O)N1 (centres unmarked) [Compound 56, N-(2-(2,6-dioxopiperidin-3-yl)-1-oxoisoindolin-5-yl)-2-(trifluoromethoxy)benzenesulfonamide]
< 1 µM	O=C1CCC(N2C(=O)c3ccc(NS(=O)(=O)Cc4ccc(Cl)cc4)cc3C2=O)C(=O)N1 (centres unmarked) [Compound 57, 1-(4-chlorophenyl)-N-(2-(2,6-dioxopiperidin-3-yl)-1,3-dioxoisoindolin-5-yi)methanesulfonamide]
